# Results reported in US20210115104A1, “AMYLIN ANALOGUES” (Zealand Pharma A/S, priority 2015, published 2021).
# Like-named read-outs stand apart in the source and are kept apart here. *1 amine or outer side, *2 acyl side, *3 side chain or, on linkers, in order; H or OH if unused. Where a SMILES comes first, the peptide text is derived from it. Bridges are numbered along the chain shown (N, C = ends). [ ]: non-standard residue; d: D form. The star is where a group is joined. C20 diacid = O=C(O)CCCCCCCCCCCCCCCCCCC(=O)*; γGlu = O=C(O)[C@H](CCC(=O)[*:2])N[*:1]; Hyp = O=C(O)[C@@H]1C[C@@H](O)CN1; NMeI = CC[C@H](C)[C@H](NC)C(=O)O; Aad = N[C@@H](CCCC(=O)O)C(=O)O; Sar = CNCC(=O)O
# Columns and labels:
# [1] = target: T1, human calcitonin receptor (hCTR2) (Homo sapiens, UniProt P30988); assay: hCTR2 cAMP assay (AlphaScreen) in COS7 cells; format: cell-based
# T1 construct: expressed in transfected cells
# T1 sequence (P30988 25-474): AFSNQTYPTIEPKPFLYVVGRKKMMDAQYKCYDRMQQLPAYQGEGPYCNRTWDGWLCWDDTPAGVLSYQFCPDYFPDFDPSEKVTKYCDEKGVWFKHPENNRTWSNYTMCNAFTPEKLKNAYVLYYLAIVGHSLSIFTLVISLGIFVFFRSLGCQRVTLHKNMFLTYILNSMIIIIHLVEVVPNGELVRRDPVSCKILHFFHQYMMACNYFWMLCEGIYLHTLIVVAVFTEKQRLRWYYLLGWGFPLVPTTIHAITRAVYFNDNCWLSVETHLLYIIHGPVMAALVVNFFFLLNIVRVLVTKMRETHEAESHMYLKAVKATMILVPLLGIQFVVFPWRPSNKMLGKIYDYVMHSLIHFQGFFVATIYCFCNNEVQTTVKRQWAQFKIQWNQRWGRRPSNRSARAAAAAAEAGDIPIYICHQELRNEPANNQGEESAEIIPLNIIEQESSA
# Procedure, shortened: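 Stable hCTR2 clone in RAMP-naïve COS7 cells stimulated 15 min at 37 °C with increasing peptide concentrations in Tyrode buffer pH 7.4 containing IBMX and 0.1% casein. cAMP in lysates measured by AlphaScreen; EC50 from 4-parameter logistic fit.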
# [2] = target: T2, human amylin receptor 3 (hAMYR3), hCTR2 co-expressed with hRAMP3 (Homo sapiens, UniProt O60896+P30988); assay: hAMYR3 cAMP assay (AlphaScreen) in COS7 cells; format: cell-based
# T2 construct: expressed in transfected cells
# T2 sequence (P30988 25-474): T1 sequence (P30988 25-474)
# T2 sequence (O60896 24-148 partner): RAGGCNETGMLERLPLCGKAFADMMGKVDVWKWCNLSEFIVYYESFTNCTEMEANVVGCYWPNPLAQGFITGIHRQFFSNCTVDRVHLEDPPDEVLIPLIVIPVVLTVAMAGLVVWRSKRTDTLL
# Procedure, shortened: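 Stable COS7 clone co-expressing hCTR2 and hRAMP3 was exposed to increasing peptide concentrations in Tyrode buffer (pH 7.4) with 100 µM IBMX and 0.1% casein for 15 min at 37 °C. Lysate cAMP was measured by AlphaScreen; EC50 came from 4-parameter logistic fitting.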
# [3] = Assessment of chemical stability (RP-HPLC normalized purity); format: physicochemical; details: for Normalized purity after 7 days, 40° C., pH 4: pH 4, 0.2 mg/ml; for Normalized purity after 7 days, 40° C., pH 4 / Normalized purity after 7 days, 40° C., pH 6 / Normalized purity after 7 days, 40° C., pH 7.5 / Normalized purity after 7 days, 40° C., pH 9: Table 1; for Normalized purity after 7 days, 40° C., pH 6: pH 6, 0.2 mg/ml; for Normalized purity after 7 days, 40° C., pH 7.5: pH 7.5, 0.2 mg/ml; for Normalized purity after 7 days, 40° C., pH 9: pH 9, 0.2 mg/ml
# Procedure, shortened: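 Peptides at 0.2 mg/ml in water adjusted to pH 4, 6, 7.5 or 9, incubated at 40° C for 7 days. Main-peak area-% by RP-HPLC (C8 ammonium formate or C18 TFA gradient, UV 220 nm), normalized to T=0 as 100.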
# [4] = cAMP induction, COS7 cells expressing hCTR2, Table 1, read-out: hCTR2 EC50
# [5] = cAMP induction, COS7 cells expressing hAMYR3, Table 1, read-out: hAMYR3 EC50
SMILES,"EC50 [1, 4] [nM]","EC50 [2, 5] [nM]","Normalized purity after 7 days, 40° C., pH 4 [3]","Normalized purity after 7 days, 40° C., pH 6 [3]","Normalized purity after 7 days, 40° C., pH 7.5 [3]","Normalized purity after 7 days, 40° C., pH 9 [3]",EC50 [1] [nM],EC50 [2] [nM],"Normalized purity pH 4 (Table 5) ([3]; pH 4, repeat of Example 6 for pairs with/without Asn-Asn at 21-22)","Normalized purity pH 6 (Table 5) ([3]; pH 6, repeat of Example 6 for pairs with/without Asn-Asn at 21-22)","Normalized purity pH 7.5 (Table 5) ([3]; pH 7.5, repeat of Example 6 for pairs with/without Asn-Asn at 21-22)","Normalized purity pH 9 (Table 5) ([3]; pH 9, repeat of Example 6 for pairs with/without Asn-Asn at 21-22)"
"CC[C@H](C)[C@@H](C(=O)N[C@@H](CC(C)C)C(=O)N[C@@H](CO)C(=O)N[C@@H](CO)C(=O)N[C@H](C(=O)N[C@@H](CCC(=O)O)C(=O)N[C@H](C(=O)NCC(=O)N[C@@H](CO)C(=O)N[C@@H](CC(N)=O)C(=O)N[C@H](C(=O)N1C[C@H](O)C[C@H]1C(N)=O)[C@@H](C)O)C(C)C)[C@@H](C)O)N(C)C(=O)[C@H](C)NC(=O)CN(C)C(=O)[C@H](Cc1ccccc1)NC(=O)[C@H](CO)NC(=O)[C@H](CO)NC(=O)[C@H](CCCNC(=N)N)NC(=O)[C@H](CCC(N)=O)NC(=O)[C@H](CC(C)C)NC(=O)[C@H](Cc1ccccc1)NC(=O)[C@H](CCCC(=O)O)NC(=O)[C@H](C)NC(=O)[C@H](CC(C)C)NC(=O)[C@H](CCCNC(=N)N)NC(=O)[C@H](CCC(N)=O)NC(=O)[C@@H](NC(=O)[C@H](C)NC(=O)[C@@H]1CSSC[C@H](NC(=O)[C@H](CCCNC(=N)N)NC(=O)CC[C@H](NC(=O)CCCCCCCCCCCCCCCCCCC(=O)O)C(=O)O)C(=O)N[C@@H](CC(N)=O)C(=O)N[C@@H]([C@@H](C)O)C(=O)N[C@@H](C)C(=O)N[C@@H]([C@@H](C)O)C(=O)N1)[C@@H](C)O [Compound 86, [19CD]-isoGlu-R-C( )-NTAT-C( )-ATQRLA-Aad-FLQRSSF-Gly(Me)-A-Ile(Me)-LSSTEVGSNT-Hyp-NH2] ({C20 diacid-γGlu}-RCNTATCATQRLA[Aad]FLQRSSF[Sar]A[NMeI]LSSTEVGSNT[Hyp]-NH2; disulfide 2-7)",0.1,0.15,A (A = >90%),A (A = >90%),A (A = >90%),A (A = >90%),,,,,,
"CC[C@H](C)[C@@H](C(=O)N[C@@H](CC(C)C)C(=O)N[C@@H](CO)C(=O)N[C@@H](CO)C(=O)N[C@H](C(=O)N[C@@H](CCC(=O)O)C(=O)N[C@H](C(=O)NCC(=O)N[C@@H](CO)C(=O)N[C@@H](CC(N)=O)C(=O)N[C@H](C(=O)N1CCC[C@H]1C(N)=O)[C@@H](C)O)C(C)C)[C@@H](C)O)N(C)C(=O)[C@H](C)NC(=O)CN(C)C(=O)[C@H](Cc1ccccc1)NC(=O)[C@H](CO)NC(=O)[C@H](CO)NC(=O)[C@H](CCCNC(=N)N)NC(=O)[C@H](CCC(N)=O)NC(=O)[C@H](CC(C)C)NC(=O)[C@H](Cc1ccccc1)NC(=O)[C@H](Cc1c[nH]cn1)NC(=O)[C@H](C)NC(=O)[C@H](CC(C)C)NC(=O)[C@H](CCCNC(=N)N)NC(=O)[C@H](CC(=O)O)NC(=O)[C@@H](NC(=O)[C@H](C)NC(=O)[C@@H]1CSSC[C@H](NC(=O)[C@H](CCCNC(=N)N)NC(=O)CC[C@H](NC(=O)CCCCCCCCCCCCCCCCCCC(=O)O)C(=O)O)C(=O)N[C@@H](CCC(N)=O)C(=O)N[C@@H]([C@@H](C)O)C(=O)N[C@@H](C)C(=O)N[C@@H]([C@@H](C)O)C(=O)N1)[C@@H](C)O [Compound 92, [19CD]-isoGlu-R-C( )-QTAT-C( )-ATDRLAHFLQRSSF-Gly(Me)-A-Ile(Me)-LSSTEVGSNTP-NH2] ({C20 diacid-γGlu}-RCQTATCATDRLAHFLQRSSF[Sar]A[NMeI]LSSTEVGSNTP-NH2; disulfide 2-7)",0.1,0.22,A (A = >90%),A (A = >90%),A (A = >90%),A (A = >90%),,,,,,
"CC[C@H](C)[C@@H](C(=O)N[C@@H](CC(C)C)C(=O)N[C@@H](CO)C(=O)N[C@@H](CO)C(=O)N[C@H](C(=O)N[C@@H](CCC(=O)O)C(=O)N[C@H](C(=O)NCC(=O)N[C@@H](CO)C(=O)N[C@@H](CC(N)=O)C(=O)N[C@H](C(=O)N1C[C@H](O)C[C@H]1C(N)=O)[C@@H](C)O)C(C)C)[C@@H](C)O)N(C)C(=O)[C@H](C)NC(=O)CN(C)C(=O)[C@H](Cc1ccccc1)NC(=O)[C@H](CCCNC(=N)N)NC(=O)[C@H](CCC(N)=O)NC(=O)[C@H](CC(C)C)NC(=O)[C@H](Cc1ccccc1)NC(=O)[C@H](CCCC(=O)O)NC(=O)[C@H](C)NC(=O)[C@H](CC(C)C)NC(=O)[C@H](CCCNC(=N)N)NC(=O)[C@H](CC(=O)O)NC(=O)[C@@H](NC(=O)[C@H](C)NC(=O)[C@@H]1CSSC[C@H](NC(=O)[C@H](CCCNC(=N)N)NC(=O)CC[C@H](NC(=O)CCCCCCCCCCCCCCCCCCC(=O)O)C(=O)O)C(=O)N[C@@H](CCC(N)=O)C(=O)N[C@@H]([C@@H](C)O)C(=O)N[C@@H](C)C(=O)N[C@@H]([C@@H](C)O)C(=O)N1)[C@@H](C)O [Compound 95, [19CD]-isoGlu-R-C( )-QTAT-C( )-ATDRLA-Aad-FLQRF-Gly(Me)-A-Ile(Me)-LSSTEVGSNT-Hyp-NH2] ({C20 diacid-γGlu}-RCQTATCATDRLA[Aad]FLQRF[Sar]A[NMeI]LSSTEVGSNT[Hyp]-NH2; disulfide 2-7)",0.18,0.2,A (A = >90%),A (A = >90%),A (A = >90%),A (A = >90%),,,,,,
"CC[C@H](C)[C@@H](C(=O)N[C@@H](CC(C)C)C(=O)N[C@@H](CO)C(=O)N[C@@H](CO)C(=O)N[C@H](C(=O)N[C@@H](CCC(=O)O)C(=O)N[C@H](C(=O)NCC(=O)N[C@@H](CO)C(=O)N[C@@H](CC(N)=O)C(=O)N[C@H](C(=O)N1C[C@H](O)C[C@H]1C(N)=O)[C@@H](C)O)C(C)C)[C@@H](C)O)N(C)C(=O)[C@H](C)NC(=O)CN(C)C(=O)[C@H](Cc1ccccc1)NC(=O)[C@H](CC(N)=O)NC(=O)[C@H](CC(N)=O)NC(=O)[C@H](CO)NC(=O)[C@H](CO)NC(=O)[C@H](CCCNC(=N)N)NC(=O)[C@H](CCC(N)=O)NC(=O)[C@H](CC(C)C)NC(=O)[C@H](Cc1ccccc1)NC(=O)[C@H](CCCC(=O)O)NC(=O)[C@H](C)NC(=O)[C@H](CC(C)C)NC(=O)[C@H](CCCNC(=N)N)NC(=O)[C@H](CCC(=O)O)NC(=O)[C@@H](NC(=O)[C@H](C)NC(=O)[C@@H]1CSSC[C@H](NC(=O)[C@H](CCCNC(=N)N)NC(=O)CC[C@H](NC(=O)CCCCCCCCCCCCCCCCCCC(=O)O)C(=O)O)C(=O)NCC(=O)N[C@@H]([C@@H](C)O)C(=O)N[C@@H](C)C(=O)N[C@@H]([C@@H](C)O)C(=O)N1)[C@@H](C)O [Compound 98, [19CD]-isoGlu-R-C( )-GTAT-C( )-ATERLA-Aad-FLQRSSNNF-Gly(Me)-A-Ile(Me)-LSSTEVGSNT-Hyp-NH2, reference compound] ({C20 diacid-γGlu}-RCGTATCATERLA[Aad]FLQRSSNNF[Sar]A[NMeI]LSSTEVGSNT[Hyp]-NH2; disulfide 2-7)",,,,,,,7.2,0.38,A (A = >90%),A (A = >90%),B (B = 70-90%),B (B = 70-90%)
